Data set [1] concerns Spodoptera littoralis (Egyptian cotton leafworm). The data set is described as follows: Activity against Spodoptera littoralis (larvicide, feeding/residual contact activity, preventive), cotton leaf discs. Format: in vivo. As to conditions: foliar, 72 h, read-out: activity (mortality, repellent effect, feeding behaviour, growth regulation). An excerpt:
Activity Against Spodoptera littoralis (Egyptian Cotton Leafworm)
(§1) (Larvicide, Feeding/Residual Contact Activity, Preventive)
Cotton leaf discs were placed on agar in a 24-well microtiter plate and sprayed with test solutions. After drying, the leaf discs were infested with 5 L1 larvae. The samples were checked for mortality, repellent effect, feeding behaviour, and growth regulation 3 days after treatment.

The subject of data set [2] is Heliothis virescens (tobacco budworm). The data set is described as follows: Activity against Heliothis virescens (ovo-larvicide, feeding/contact activity, curative), eggs on artificial diet. Type of data set: in vivo. Conditions: read-out: activity (egg mortality, larval mortality, growth regulation). The method, then: Activity Against Heliothis virescens (Tobacco Budworm)
(Ovo-Larvicide, Feeding/Contact Activity, Curative)
Eggs (0-24 h old) were placed in 24-well microtiter plate on artificial diet and treated with test solutions by pipetting. After an incubation period of 4 days, samples were checked for egg mortality, larval mortality, and growth regulation.

Data set [3] deals with Plutella xylostella (diamond back moth). The data set is described as follows: Plutella xylostella (larvicide, feeding/residual contact activity, preventive), artificial diet MTP. Type of data set: in vivo. As to conditions: 120 h, read-out: activity (larval mortality, antifeedant, growth regulation). On the procedure: Plutella xylostella (Diamond Back Moth)
as §1
24-well microtiter plate (MTP) with artificial diet was treated with test solutions by pipetting. After drying, the MTP's were infested with larvae (L2) (10-15 per well). After an incubation period of 5 days, samples were checked for larval mortality, antifeedant and growth regulation.

In data set [4] the test system is Diabrotica balteata (corn root worm). The data set can be described thus: Diabrotica balteata (larvicide, feeding/residual contact activity, preventive), artificial diet MTP. Type of data set: in vivo. As to conditions: 120 h, read-out: activity (larval mortality, antifeedant, growth regulation). The method, then: Diabrotica balteata (Corn Root Worm)
as §1
24-well microtiter plate (MTP) with artificial diet was treated with test solutions by pipetting. After drying, the MTP's were infested with larvae (L2) (6-10 per well). After an incubation period of 5 days, samples were checked for larval mortality, antifeedant and growth regulation.

Data set [5] deals with Myzus persicae (green peach aphid). The data set is described as follows: Activity against Myzus persicae (mixed population, feeding/residual contact activity, preventive), sunflower leaf discs. Type of data set: in vivo. Conditions: foliar, 144 h, read-out: activity (mortality and special effects). On the procedure:
(§2) Activity Against Myzus persicae (Green Peach Aphid)
(§3) (Mixed Population, Feeding/Residual Contact Activity, Preventive)
Sunflower leaf discs were placed on agar in a 24-well microtiter plate and sprayed with test solutions. After drying, the leaf discs were infested with an aphid population of mixed ages. After an incubation period of 6 days, samples were checked for mortality and special effects (e.g. phytotoxicity).

Data set [6] relates to Thrips tabaci (onion thrips). The data set can be described thus: Activity against Thrips tabaci (mixed population, feeding/residual contact activity, preventive), sunflower leaf discs. Type of data set: in vivo. As to conditions: foliar, 144 h, read-out: activity (mortality and special effects). The method, then:
Activity Against Thrips tabaci (Onion Thrips)
as §3
Sunflower leaf discs were placed on agar in a 24-well microtiter plate and sprayed with test solutions. After drying, the leaf discs were infested with a thrips population of mixed ages. After an incubation period of 6 days, samples were checked for mortality and special effects (e.g. phytotoxicity).

Data set [7] has as its system Nilaparvata lugens (brown rice planthopper). The data set is described as follows: Activity against Nilaparvata lugens (larvicide, feeding/contact), rice seedlings. Type of data set: in vivo. As to conditions: read-out: activity (mortality, growth regulation, effects on the F1 generation). The method, then: Activity Against Nilaparvata lugens (Brown Rice Planthopper)
(Larvicide, Feeding/Contact)
Rice seedlings were treated with the diluted test solutions in a spray chamber. After drying, they were infested with 20 N3 nymphs (2 replicates). 6-12 days after the treatment samples were checked for mortality, growth regulation, and effects on the F, generation.

Data set [8] deals with Myzus persicae (green peach aphid). The data set can be described thus: Activity against Myzus persicae (mixed population, systemic/feeding activity, curative), pea seedling roots in test solution. Format: in vivo. As to conditions: 144 h, read-out: activity (mortality and special effects on the plant).
From the text: as §2
(Mixed Population, Systemic/Feeding Activity, Curative)
Roots of pea seedlings, infested with an aphid population of mixed ages, were placed directly in the test solutions. 6 days after introduction, samples were checked for mortality and special effects on the plant.

Where [9] appears, read: 400 ppm, L1 larvae on sprayed cotton leaf discs, 3 days after treatment.
Where [10] appears, read: 400 ppm, eggs 0-24 h old on artificial diet, 4 days incubation.
[11] abbreviates: 400 ppm, L2 larvae on treated artificial diet, 5 days incubation.
Where [12] appears, read: 400 ppm, mixed-age aphids on sprayed sunflower leaf discs, 6 days incubation.
Where [13] appears, read: 400 ppm, N3 nymphs on sprayed rice seedlings, 6-12 days after treatment.

Where two headings read alike, the source gives them in different places.

The term melting point denotes the temperature of the solid-liquid transition. Turning to `COc1cc(C(=O)Nc2c(C)cc3cn(Cc4ccccn4)nc3c2C(=O)NC(C)C)n(-c2ncccc2Cl)n1`, the melting point was 156 to 160 °C.

For the compound `CCCCCCCCCCCCCCCCOCCOCCOC(=O)n1cc2cc(C)c(NC(=O)c3cc(OC)nn3-c3ncccc3Cl)c(C(=O)NC(C)C)c2n1` [P.23], the mortality at 400 ppm in [1] (setting [9]) was more than 80%; in [2] (setting [10]), more than 80%; in data set [3] (setting [11]) it was more than 80%; in data set [4] (setting [11]), more than 80%; in data set [5] (setting [12]), more than 80%; in data set [6] (400 ppm, mixed-age thrips on sprayed sunflower leaf discs, 6 days incubation), more than 80%. Also, the mortality at 400 ppm in data set [7] (setting [13]) is more than 80%.

With `COc1cc(C(=O)Nc2c(C)cc3cn(C(=O)OC(C)(C)C)nc3c2C(=O)NC(C)C)n(-c2ncccc2Cl)n1`, the melting point was 161 to 162 °C.

For `COCCOCn1cc2cc(C)c(NC(=O)c3cc(OC)nn3-c3ncccc3Cl)c(C(=O)NC(C)C)c2n1` [P.12, 6-{[2-(3-chloro-pyridin-2-yl)-5-methoxy-2H-pyrazole-3-carbonyl]-amino}-2-(2-methoxy-ethoxymethyl)-5-methyl-2H-indazole-7-carboxylic acid isopropylamide], the mortality at 400 ppm in data set [1], in data set [2], in [3], in data set [5], in [8] and in [6] was more than 80% throughout. In data set [7], the mortality at 400 ppm is more than 80%.

Turning to `COCn1ncc2cc(Cl)c(NC(=O)c3cc(C(F)(F)F)nn3-c3ncccc3Cl)c(C(=O)NC(C)C)c21` [P.2], the mortality at 400 ppm in data set [1], in data set [2], in data set [3], in data set [4], in data set [5] and in data set [8] was more than 80% throughout. Further, the mortality at 400 ppm in [6] and in [7] was more than 80% in each case.

Turning to `CCCCCCCCCCCCOCCOC(=O)n1cc2cc(C)c(NC(=O)c3cc(OC)nn3-c3ncccc3Cl)c(C(=O)NC(C)C)c2n1` [P.29], the mortality at 400 ppm is more than 80% in data set [1] (setting [9]); more than 80% in [2] (setting [10]); more than 80% in data set [3] (setting [11]); more than 80% in data set [4] (setting [11]); more than 80% in [5] (setting [12]); more than 80% in [8] (400 ppm, systemic, roots of infested pea seedlings in test solution, 6 days). The mortality at 400 ppm in data set [7] (setting [13]) was more than 80%.

Take `CCOC(=O)CSC(=O)n1cc2cc(C)c(NC(=O)c3cc(OC)nn3-c3ncccc3Cl)c(C(=O)NC(C)C)c2n1`: the melting point is 85 to 86 °C.

Consider `COc1cc(C(=O)Nc2c(C)cc3cn(-c4nc(OC)nc(OC)n4)nc3c2C(=O)NC(C)C)n(-c2ncccc2Cl)n1`, for which the melting point is 226 to 230 °C.

As for `CCCCCCCCN(C)C(=O)n1cc2cc(C)c(NC(=O)c3cc(OC)nn3-c3ncccc3Cl)c(C(=O)NC(C)C)c2n1`, the melting point lay in the range of 66 to 70 °C.

`COc1cc(C(=O)Nc2c(C)cc3cn(-c4nc(Cl)nc(Cl)n4)nc3c2C(=O)NC(C)C)n(-c2ncccc2Cl)n1`: the melting point was 216 °C (dec.).

`CCCC(C)(C)C(=O)n1cc2cc(C)c(NC(=O)c3cc(OC)nn3-c3ncccc3Cl)c(C(=O)NC(C)C)c2n1` [P.31]: the mortality at 400 ppm in data set [1], in data set [2], in data set [3], in [4], in data set [5] and in data set [8] was more than 80% throughout. Further, the mortality at 400 ppm in data set [6] and in data set [7] was more than 80% throughout.

Regarding `COc1cc(C(=O)Nc2c(C)cc3cn(C(=O)C(C)(C)C)nc3c2C(=O)NC(C)C)n(-c2ncccc2Cl)n1` [P.26], the mortality at 400 ppm in [1], in [2], in data set [3], in data set [4], in data set [5] and in [8] was more than 80% in each case. In addition, in data set [7], the mortality at 400 ppm is more than 80%.

As for `COCn1ncc2cc(C)c(NC(=O)c3cc(OC)nn3-c3ncccc3Cl)c(C(=O)NC(C)C)c21` [P.19], the mortality at 400 ppm in [1], in data set [2], in data set [3], in data set [4], in data set [5] and in [8] was more than 80% in each case. The mortality at 400 ppm in data set [6] and in data set [7] was more than 80% in each case.

Regarding `COc1cc(C(=O)Nc2c(C)cc3cn(C(=O)C4(C)CCCCC4)nc3c2C(=O)NC(C)C)n(-c2ncccc2Cl)n1` [P.32], the mortality at 400 ppm in data set [1], in data set [2], in [3], in data set [4], in data set [5] and in [8] was more than 80% each time. Moreover, the mortality at 400 ppm in data set [6] was more than 80%.

Take `COCn1cc2cc(Cl)c(NC(=O)c3cc(C(F)(F)F)nn3-c3ncccc3Cl)c(C(=O)NC(C)C)c2n1` [P.6]: the mortality at 400 ppm in [1], in [2], in data set [3], in data set [4], in data set [5] and in [8] was more than 80% throughout. Moreover, in data set [6], the mortality at 400 ppm is more than 80%.

The values are drawn from patent US8598078B2, “Condensed anthran I lami de derivatives as insecticides” (Syngenta Crop Protection, LLC, priority 2007, dated 2013).
